# Reference: patent US20250136553A1, “ACYLSULFONAMIDE KAT6A INHIBITORS” (Olema Pharmaceuticals, Inc., priority 2023, published 2025)
# Target: human-KAT6A (MYST domain 507-778 aa) (Homo sapiens (Human), UniProt Q92794)
# Test: KAT6A biochemical assay (TR-FRET)
# Conditions: for IC50: TR-FRET, histone H4 peptide 200 nM, acetyl-CoA 600 nM, read-out: KAT6A IC50; for inhibition at 1 µM: reported where IC50 could not be determined, read-out: Percent inhibition at specific concentration (KAT6A)
# How it was run: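 KAT6A MYST domain preincubated with compound 30 min at 25° C, then reacted 60 min at 25° C with 200 nM biotin-H4 peptide and 600 nM acetyl-CoA (final). Europium anti-acetyl-lysine/streptavidin-APC TR-FRET read (Ex 340, Em 615/665 nm); % inhibition from 665/615 ratio, IC50 by sigmoidal fit.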
# Sequence of human-KAT6A (MYST domain 507-778 aa) (Q92794 507-778): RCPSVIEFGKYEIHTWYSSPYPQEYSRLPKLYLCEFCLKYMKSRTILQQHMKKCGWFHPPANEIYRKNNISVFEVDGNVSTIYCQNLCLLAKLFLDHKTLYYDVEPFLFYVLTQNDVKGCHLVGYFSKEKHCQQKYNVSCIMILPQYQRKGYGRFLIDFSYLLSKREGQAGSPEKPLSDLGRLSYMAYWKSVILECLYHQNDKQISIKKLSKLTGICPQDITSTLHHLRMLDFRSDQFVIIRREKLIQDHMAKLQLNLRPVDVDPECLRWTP
Compound,IC50 [nM],inhibition at 1 µM [%]
"COc1cc(C#Cc2cccnc2)cc(OC)c1S(=O)(=O)NC(=O)c1ccc(Cn2cccn2)c(OC)n1 [Compound 269, 5-((1H-Pyrazol-1-yl)methyl)-N-((2,6-dimethoxy-4-(pyridin-3-ylethynyl)phenyl)sulfonyl)-6-methoxypicolinamide]",12,–
"[2H]C([2H])([2H])Oc1cc(OC([2H])([2H])[2H])c(S(=O)(=O)NC(=O)c2ccc(Cn3cccn3)c(OC)n2)c(OC([2H])([2H])[2H])c1 [Compound 270, 5-((1H-pyrazol-1-yl)methyl)-6-methoxy-N-((2,4,6-tris(methoxy-d3)phenyl)sulfonyl)picolinamide]",6,–
"CCc1ccc(OC)c(S(=O)(=O)NC(=O)c2ncc(Cn3cccn3)c(OC)n2)c1 [Compound 271, 5-((1H-Pyrazol-1-yl)methyl)-N-((5-ethyl-2-methoxyphenyl)sulfonyl)-4-methoxypyrimidine-2-carboxamide]",37,–
"COc1cc(OC)c(S(=O)(=O)NC(=O)c2ncc(Cn3cccn3)c(OC)n2)c(OC)c1 [Compound 272, 5-((1H-pyrazol-1-yl)methyl)-4-methoxy-N-((2,4,6-trimethoxyphenyl)sulfonyl)pyrimidine-2-carboxamide]",33,–
"COc1ccc(C2CC2)cc1S(=O)(=O)NC(=O)c1ncc(Cn2cccn2)c(OC)n1 [Compound 273, 5-((1H-pyrazol-1-yl)methyl)-N-((5-cyclopropyl-2-methoxyphenyl)sulfonyl)-4-methoxypyrimidine-2-carboxamide]",34,–
"COc1cccc(OC)c1S(=O)(=O)NC(=O)c1ncc(Cn2cccn2)c(OC)n1 [Compound 274, 5-((1H-pyrazol-1-yl)methyl)-N-((2,6-dimethoxyphenyl)sulfonyl)-4-methoxypyrimidine-2-carboxamide]",30,–
"COc1cc(C)cc(OC)c1S(=O)(=O)NC(=O)c1ccc(Cn2cccn2)c(OC)n1 [Compound 275, 5-((1H-pyrazol-1-yl)methyl)-N-((2,6-dimethoxy-4-methylphenyl)sulfonyl)-6-methoxypicolinamide]",10,–
"COc1ccc(C(C)(C)C)cc1S(=O)(=O)NC(=O)c1ccc(Cn2cccn2)c(=O)n1C [Compound 278, 5-((1H-pyrazol-1-yl)methyl)-N-((5-(tert-butyl)-2-methoxyphenyl)sulfonyl)-1-methyl-6-oxo-1,6-dihydropyridine-2-carboxamide]",–,25
"COc1cccc(OC2CC2)c1S(=O)(=O)NC(=O)c1ccc(Cn2cccn2)c(OC)n1 [Compound 279, 5-((1H-pyrazol-1-yl)methyl)-N-((2-cyclopropoxy-6-methoxyphenyl)sulfonyl)-6-methoxypicolinamide]",14,–
"COc1nc(C(=O)NS(=O)(=O)c2cc(C(C)(C)C)cc3c2OCC3)ccc1Cn1cccn1 [Compound 280, 5-((1H-pyrazol-1-yl)methyl)-N-((5-(tert-butyl)-2,3-dihydrobenzofuran-7-yl)sulfonyl)-6-methoxypicolinamide]",5,–
"COc1ccc2c(c1S(=O)(=O)NC(=O)c1ccc(Cn3cccn3)c(OC)n1)OCO2 [Compound 281, 5-((1H-pyrazol-1-yl)methyl)-6-methoxy-N-((5-methoxybenzo[d][1,3]dioxol-4-yl)sulfonyl)picolinamide]",10,–
"COc1cc(F)cc(OC)c1S(=O)(=O)NC(=O)c1ccc(Cn2cccn2)c(OC)n1 [Compound 282, 5-((1H-pyrazol-1-yl)methyl)-N-((4-fluoro-2,6-dimethoxyphenyl)sulfonyl)-6-methoxypicolinamide]",14,–
"COc1cc(Cl)cc(OC)c1S(=O)(=O)NC(=O)c1ccc(Cn2cccn2)c(OC)n1 [Compound 283, 5-((1H-pyrazol-1-yl)methyl)-N-((4-chloro-2,6-dimethoxyphenyl)sulfonyl)-6-methoxypicolinamide]",10,–
"CCOc1ccc(CC)c(OC)c1S(=O)(=O)NC(=O)c1ccc(Cn2cccn2)c(OC)n1 [Compound 284, 5-((1H-pyrazol-1-yl)methyl)-N-((6-ethoxy-3-ethyl-2-methoxyphenyl)sulfonyl)-6-methoxypicolinamide]",10,–
"COc1cc(Br)cc(OC)c1S(=O)(=O)NC(=O)c1ccc(Cn2cccn2)c(OC)n1 [Compound 285, 5-((1H-pyrazol-1-yl)methyl)-N-((4-bromo-2,6-dimethoxyphenyl)sulfonyl)-6-methoxypicolinamide]",6,–
"COc1cc(C)c(S(=O)(=O)NC(=O)c2ccc(Cn3cccn3)c(OC)n2)c(OC)c1 [Compound 286, 5-((1H-pyrazol-1-yl)methyl)-N-((2,4-dimethoxy-6-methylphenyl)sulfonyl)-6-methoxypicolinamide]",11,–
"COc1nc(C(=O)NS(=O)(=O)c2cc(C(F)(F)F)cc3c2OCC3)ccc1Cn1cccn1 [Compound 287, 5-((1H-pyrazol-1-yl)methyl)-6-methoxy-N-((5-(trifluoromethyl)-2,3-dihydrobenzofuran-7-yl)sulfonyl)picolinamide]",11,–

Compound,IC50 [nM],inhibition at 1 µM [%]
"COc1cc(F)c(S(=O)(=O)NC(=O)c2ccc(Cn3cccn3)c(OC)n2)c(OC)c1 [Compound 288, 5-((1H-pyrazol-1-yl)methyl)-N-((2-fluoro-4,6-dimethoxyphenyl)sulfonyl)-6-methoxypicolinamide]",8,–
"CCOc1nc(C(=O)NS(=O)(=O)c2c(OC)cccc2OC)ccc1Cn1cccn1 [Compound 289, 5-((1H-pyrazol-1-yl)methyl)-N-((2,6-dimethoxyphenyl)sulfonyl)-6-ethoxypicolinamide]",19,–
"COc1ccc(C(C)(C)CO)cc1[S@](=N)(=O)NC(=O)c1ccc(Cn2cccn2)c(OC)n1 [Compound 290a, (R)-5-((1H-pyrazol-1-yl)methyl)-N-(5-(1-hydroxy-2-methylpropan-2-yl)-2-methoxyphenylsulfonimidoyl)-6-methoxypicolinamide]",14,–
"COc1ccc(C(C)(C)CO)cc1[S@@](=N)(=O)NC(=O)c1ccc(Cn2cccn2)c(OC)n1 [Compound 290b, (S)-5-((1H-pyrazol-1-yl)methyl)-N-(5-(1-hydroxy-2-methylpropan-2-yl)-2-methoxyphenylsulfonimidoyl)-6-methoxypicolinamide]",33,–
"COc1cc(C(=O)N[S@@](=N)(=O)c2cc(C(C)(C)CO)ccc2OC)ccc1Cn1cccn1 [Compound 291a, (R)-4-((1H-pyrazol-1-yl)methyl)-N-(5-(1-hydroxy-2-methylpropan-2-yl)-2-methoxyphenylsulfonimidoyl)-3-methoxybenzamide]",93,–
"COc1cc(C(=O)N[S@](=N)(=O)c2cc(C(C)(C)CO)ccc2OC)ccc1Cn1cccn1 [Compound 291b, (S)-4-((1H-pyrazol-1-yl)methyl)-N-(5-(1-hydroxy-2-methylpropan-2-yl)-2-methoxyphenylsulfonimidoyl)-3-methoxybenzamide]",9,–
"CN=S(=O)(NC(=O)c1ccc(Cn2cccn2)c(OC)c1)c1c(OC)cccc1OC (stereo not shown) [Compound 292, 4-((1H-pyrazol-1-yl)methyl)-N-((2,6-dimethoxyphenyl)(methylamino)(oxo)-16-sulfaneylidene)-3-methoxybenzamide]",–,47
"COc1ccc(Cl)c(OC)c1[S@](=N)(=O)NC(=O)c1ccc(Cn2cccn2)c(OC)n1 [Compound 293a, (R)-5-((1H-pyrazol-1-yl)methyl)-N-(3-chloro-2,6-dimethoxyphenylsulfonimidoyl)-6-methoxypicolinamide]",374,–
"COc1ccc(Cl)c(OC)c1[S@@](=N)(=O)NC(=O)c1ccc(Cn2cccn2)c(OC)n1 [Compound 293b, (S)-5-((1H-pyrazol-1-yl)methyl)-N-(3-chloro-2,6-dimethoxyphenylsulfonimidoyl)-6-methoxypicolinamide]",16,–
"CCOc1cccc(OC)c1[S@](=N)(=O)NC(=O)c1ccc(Cn2cccn2)c(OC)n1 [Compound 294a, (R)-5-((1H-pyrazol-1-yl)methyl)-N-(2-ethoxy-6-methoxyphenylsulfonimidoyl)-6-methoxypicolinamide]",271,–
"CCOc1cccc(OC)c1[S@@](=N)(=O)NC(=O)c1ccc(Cn2cccn2)c(OC)n1 [Compound 294b, (S)-5-((1H-pyrazol-1-yl)methyl)-N-(2-ethoxy-6-methoxyphenylsulfonimidoyl)-6-methoxypicolinamide]",22,–
"COc1cc(C(=O)N[S@@](=N)(=O)c2c(OC)cccc2OC)ccc1Cn1cccn1 [Compound 295a, (R)-4-((1H-pyrazol-1-yl)methyl)-N-(2,6-dimethoxyphenylsulfonimidoyl)-3-methoxybenzamide]",16,–
"COc1cc(C(=O)N[S@](=N)(=O)c2c(OC)cccc2OC)ccc1Cn1cccn1 [Compound 295b, (S)-4-((1H-pyrazol-1-yl)methyl)-N-(2,6-dimethoxyphenylsulfonimidoyl)-3-methoxybenzamide]",271,–
"COc1cc(OC)c([S@](=N)(=O)NC(=O)c2ccc(Cn3cccn3)c(OC)n2)c(OC)c1 [Compound 296a, (R)-5-((1H-pyrazol-1-yl)methyl)-6-methoxy-N-(2,4,6-trimethoxyphenylsulfonimidoyl)picolinamide]",16,–
"COc1cc(OC)c([S@@](=N)(=O)NC(=O)c2ccc(Cn3cccn3)c(OC)n2)c(OC)c1 [Compound 296b, (S)-5-((1H-pyrazol-1-yl)methyl)-6-methoxy-N-(2,4,6-trimethoxyphenylsulfonimidoyl)picolinamide]",677,–
"COc1cccc(OC2CCC2)c1[S@](=N)(=O)NC(=O)c1ccc(Cn2cccn2)c(OC)n1 [Compound 298a, (R)-5-((1H-pyrazol-1-yl)methyl)-N-(2-cyclobutoxy-6-methoxyphenylsulfonimidoyl)-6-methoxypicolinamide]",23,–
"COc1cccc(OC2CCC2)c1[S@@](=N)(=O)NC(=O)c1ccc(Cn2cccn2)c(OC)n1 [Compound 298b, (S)-5-((1H-pyrazol-1-yl)methyl)-N-(2-cyclobutoxy-6-methoxyphenylsulfonimidoyl)-6-methoxypicolinamide]",511,–
